Source: patent US20230257415A1, “COMPOUNDS FOR TREATING CNS DISORDERS” (SAGE THERAPEUTICS, INC., priority 2019, published 2023)

The compounds below were run against GABAA receptor (assay: [35S]-TBPS binding assay, rat brain cortical membranes, in the presence of GABA). Details: inhibition of 3 nM [35S]-TBPS binding, 5 mM GABA, 90 min, room temp.
Experimental: [35S]-t-Butylbicyclophosphorothionate (TBPS) binding assays using rat brain cortical membranes in the presence of 5 mM GABA has been described (Gee et al, J. Pharmacol. Exp. Ther. 1987, 241, 346-353; Hawkinson et al, Mol. Pharmacol. 1994, 46, 977-985; Lewin, A.H et al., Mol. Pharmacol. 1989, 35, 189-194).
Briefly, cortices are rapidly removed following decapitation of carbon dioxide-anesthetized Sprague-Dawley rats (200-250 g). The cortices are homogenized in 10 volumes of ice-cold 0.32 M sucrose using a glass/teflon homogenizer and centrifuged at 1500 x g for 10 min at 4° C. The resultant supernatants are centrifuged at 10,000 x g for 20 min at 4° C. to obtain the P2 pellets. The P2 pellets are resuspended in 200 mM NaCl/50 mM Na-K phosphate pH 7.4 buffer and centrifuged at 10,000 x g for 10 min at 4° C. This washing procedure is repeated twice and the pellets are resuspended in 10 volumes of buffer. Aliquots ([…]) of the membrane suspensions are incubated with 3 nM [^35S]-TBPS and […] aliquots of test drug dissolved in dimethyl sulfoxide (DMSO) (final 0.5%) in the presence of 5 mM GABA. The incubation is brought to a final volume of 1.0 mL with buffer. […] Following a 90 min incubation at room temp, the assays are terminated by filtration through glass fiber filters (Schleicher and Schuell No. 32) using a cell harvester (Brandel) and rinsed three times with ice-cold buffer. Filter bound radioactivity is measured by liquid scintillation spectrometry. Non-linear curve fitting of the overall data for each drug averaged for each concentration is done using Prism (GraphPad). […] The concentration of test compound producing 50% inhibition (IC50) of specific binding and the maximal extent of inhibition (Imax) are determined for the individual experiments with the same model used for the overall data and then the means ± SEM.s of the individual experiments are calculated.
Various compounds are or can be screened to determine their potential as modulators of [^35S]-TBPS binding in vitro. These assays are or can be performed in accordance with the above.

Structure (SMILES) | IC50 [nM]
CC[C@]12CCC3[C@H]4CC[C@](O)(COC)C[C@H]4CC[C@H]3[C@@H]1CCC[C@@H]2CNC(=O)c1ccc(C#N)cc1 (stereo partly drawn) [Example 41, 4-cyano-N-(((1S,4aS,4bR,6aR,8R,10aS,12aS)-12a-ethyl-8-hydroxy-8-(methoxymethyl)octadecahydrochrysen-1-yl)methyl)benzamide] | 100 to 1000
COC[C@@]1(O)CC[C@H]2[C@H](CC[C@@H]3[C@@H]2CC[C@]2(C)[C@@H]([C@H](C)Cn4cc(C#N)cn4)CCC[C@@H]32)C1 [Example 2, 1-((S)-2-((1R,4aS,4bR,6aR,8R,10aS,10bR,12aS)-8-hydroxy-8-(methoxymethyl)-12a-methyloctadecahydrochrysen-1-yl)propyl)-1H-pyrazole-4-carbonitrile] | < 100
CC[C@]12CC[C@@](C)(O)C[C@H]1CC[C@H]1[C@@H]3CCC[C@H](CN(C)C(=O)c4ccccc4)[C@@]3(C)CC[C@@H]12 [Example 37, N-(((1S,4aS,4bS,6aR,8R,10aS,10bS,12aS)-10a-ethyl-8-hydroxy-8,12a-dimethyloctadecahydrochrysen-1-yl)methyl)-N-methylbenzamide] | 100 to 1000
C[C@@H](Cn1cc(C#N)cn1)[C@H]1CCC[C@H]2[C@@H]3CC[C@@H]4C[C@](C)(O)CC[C@@H]4[C@H]3CC[C@]12C [Example 4, 1-((R)-2-((1R,4aS,4bR,6aR,8R,10aS,10bR,12aS)-8-hydroxy-8,12a-dimethyloctadecahydrochrysen-1-yl)propyl)-1H-pyrazole-4-carbonitrile] | < 100
C[C@H](Nc1cccc(C#N)c1)[C@H]1CCC[C@H]2[C@@H]3CC[C@@H]4C[C@](C)(O)CC[C@@H]4C3CC[C@]12C (stereo partly drawn) [Example 48, 3-(((1S)-1-((1S,4aS,4bR,6aR,8R,10aS,12aS)-8-hydroxy-8,12a-dimethyloctadecahydrochrysen-1-yl)ethyl)amino)benzonitrile] | < 100
C[C@H](Cn1cc(C#N)cn1)[C@H]1CC[C@H]2[C@@H]3CC[C@@H]4C[C@](C)(O)CCC[C@@H]4[C@H]3CC[C@]12C [Example 22, 1-((S)-2-((1R,3aS,3bR,5aR,7R,10aS,10bR,12aS)-7-hydroxy-7,12a-dimethyloctadecahydrocyclohepta[a]cyclopenta[f]naphthalen-1-yl)propyl)-1H-pyrazole-4-carbonitrile] | < 100
C[C@H](Cn1cc(C#N)cn1)[C@H]1CCC[C@H]2[C@@H]3CC[C@@H]4C[C@](C)(O)CC[C@@H]4[C@H]3CC[C@]12C [Example 1, 1-((S)-2-((1R,4aS,4bR,6aR,8R,10aS,10bR,12aS)-8-hydroxy-8,12a-dimethyloctadecahydrochrysen-1-yl)propyl)-1H-pyrazole-4-carbonitrile] | < 100
CCOC[C@@]1(O)CC[C@@H]2C3CC[C@]4(C)[C@@H]([C@@H](C)NC(=O)c5ccc(C#N)cc5F)CCC[C@H]4[C@@H]3CC[C@@H]2C1 (some centres unmarked) [Example 56] | 100 to 1000
